Paper PMC3411462, “Long-acting κ opioid antagonists nor-BNI, GNTI and JDTic: pharmacokinetics in mice and lipophilicity” (BMC Pharmacology, 2012)
Several values for one entry are separate records, joined by “and”; a condition that tells them apart may be missing. Equal values may be shown once. Read-outs that look alike come from different tables or passages of the source.

How the values were obtained:
[1] = Brain and plasma concentrations in mice after intraperitoneal administration (LC-MS-MS), non-compartmental analysis; format: in vivo; details: for [drug],brain (free base equivalent) / [drug],plasma (free base equivalent): listed as nor-BNI.2HCl.H2O; for [drug],brain (free base equivalent) / [drug],plasma (free base equivalent) / AUC(0-inf) / concentration at 0.5 h / concentration at 1 h / concentration at 2 h / concentration at 4 h / concentration at 24 h / CL/F / Vd/F: 10 mg/kg; for AUC(0-inf) / Kp uu / Kp / MRT inf / concentration at 0.5 h / concentration at 1 h / concentration at 2 h / Tmax / AUC(0-t) / Cmax / k el / half-life / concentration at 4 h / concentration at 24 h / CL/F / Vd/F: male, mouse; for MRT inf: read-out: MRT 0-inf_obs; for k el: read-out: Lambda_z (converted); for half-life: read-out: t1/2 (converted)
Procedure: Doses are reported by weight of the specified salt. […] Body mass was measured to ±0.1 g.
Mice were sacrificed by cervical dislocation, then decapitated for collection of brain and blood samples. Trunk blood was collected in 1.5 mL polypropylene micro-centrifuge tubes, shaken with a few crystals of EDTA and cooled in ice-water. Samples were centrifuged at 14,000 rpm (revolutions per minute) for 15 minutes at 3 °C, then stored in glass sample vials at −20 °C until analysis. Brains were removed and immersed for 30 seconds in 2-methylbutane over dry ice, then stored in polypropylene tubes at −20 °C until sample preparation. Sample tubes were thawed in ice-water, distilled water was added (2:1 by weight) and the brain homogenized with a probe sonicator for 3 minutes over ice-water (Fisher Sonic Dismembrator 300 at 35% power). The probe was rinsed with ethanol and distilled water between samples. Brain homogenate was stored in glass sample vials at −20 °C until analysis by LC-MS-MS.
Drug concentrations (ng mL^-1) refer to the free base, and were measured by liquid chromatography-tandem mass spectrometry (LC-MS-MS) as described previously. Briefly, samples were shaken with 3 volumes of methanol and centrifuged at 3000 g. Aliquots of the supernatants were diluted with 5 volumes of water containing an appropriate internal standard. Extracts from in vitro and in vivo experiments were analyzed by multiple reaction monitoring on an API3000 or API4000 LC-MS-MS system with electrospray ion source, controlled and analyzed using the Analyst software package (Applied Biosystems, Foster City, CA). Chromatography was conducted on a Sprite Armor C18 analytical column (20 × 2.1 mm, 10 μm particle size, Analytical Sales and Products, Pompton Plains, NJ) with a 0.5 μm PEEK guard filter. Compounds were eluted with a gradient from 2% to 95% acetonitrile in water, both containing 0.1% formic acid. Compounds were detected in positive ion mode, tuned to the mass transition with the largest intensity. Analyte concentrations were determined by comparison of analyte:internal standard peak area ratios to those of standards prepared in the appropriate matrices.
For calculation of mean concentrations, the earliest values below the MRC were substituted by MRC ÷ 2, as recommended elswhere. Pharmacokinetic parameters were calculated from mean concentrations using PKSolver, employing non-compartmental analysis for extravascular administration. Curves in figures were fitted using Origin 8.5 (OriginLab, Northampton, MA) using 2-compartment models. Confidence intervals and two-tailed p values (unpaired t test) were calculated using Graphpad Quickcalcs. One outlier was identified using Grubbs' test (p < 0.01) and excluded from the analysis; see Additional file 1.

[2] = Water solubility; format: physicochemical; details: distilled water, thermodynamic from solid, 25 °C, salt tested
Procedure: Distilled water was added slowly by microsyringe to 10–15 mg of drug in a glass vial, swirling until no solid was visible.

[3] = test system: μ opioid receptor; design: method as in PMID 1326932; details: after subcutaneous administration; cited from earlier work
[4] = design: method as in earlier work; details: preliminary reports; cited from earlier work
[5] = 0.5 h, 10 mg/kg i.p., individual mice
[6] = 1 h, 10 mg/kg i.p., individual mice
[7] = 2 h, 10 mg/kg i.p., individual mice
[8] = Swiss-Webster, ip, brain NCA, 10 mg/kg i.p.
[9] = Swiss-Webster, ip, plasma NCA, 10 mg/kg i.p.
[10] = within 1 hour, 10 mg kg^-1 i.p.
[11] = within 4 hours, 10 mg kg^-1 i.p.

Oc1ccc2c3c1O[C@H]1c4[nH]c5c(c4C[C@@]4(O)[C@@H](C2)N(CC2CC2)CC[C@]314)C[C@@]1(O)[C@H]2Cc3ccc(O)c4c3[C@@]1(CCN2CC1CC1)[C@H]5O4 [nor-BNI, norbinaltorphimine]
Time of maximal mean plasma level ([1]; 10 mg kg^-1 i.p., mice): 30 min
[drug],brain (free base equivalent) [1, 5]: 477 ng/g and 471 ng/g and 309 ng/g and 609 ng/g and 438 ng/g
[drug],plasma (free base equivalent) [1, 5]: 6130 ng/mL and 4810 ng/mL and 2110 ng/mL and 3050 ng/mL
[drug],brain (free base equivalent) [1, 6]: 250 ng/g and 396 ng/g and 299 ng/g and 372 ng/g and 207 ng/g
[drug],plasma (free base equivalent) [1, 6]: 3060 ng/mL and 2060 ng/mL and 1510 ng/mL and 1140 ng/mL and 1170 ng/mL
[drug],brain (free base equivalent) [1, 7]: <120 ng/g
[drug],plasma (free base equivalent) [1, 7]: 343 ng/mL and 309 ng/mL
[drug],plasma (free base equivalent) ([1]; 4 h, 10 mg/kg i.p., individual mice): 173 ng/mL and 156 ng/mL
[drug],plasma (free base equivalent) ([1]; 24 h, 10 mg/kg i.p., individual mice): 63 ng/mL and 50 ng/mL and 14 ng/mL
Peak unbound brain level ([1]; at 30 minutes, 10 mg kg^-1 i.p., estimate): ≤ 26 nM
AUMC 0-inf_obs ([1]; brain NCA, 10 mg/kg i.p.): 712.925 ng/ml*h^2
Tlag ([1]; brain NCA, 10 mg/kg i.p.): 0 h
C max,brain ([1]; brain, 10 mg kg^-1 i.p., mice): 443 ng/mL
AUC(0-inf) ([1]; Swiss-Webster (Crl:CFW(SW)), brain, ip, brain NCA, 10 mg/kg i.p., read-out: AUC 0-inf_obs): 593 ng·h/mL
Kp uu ([1]; Swiss-Webster (Crl:CFW(SW)), brain/plasma (unbound), ip, supplement, 10 mg/kg i.p., read-out: Kp,uu,brain (AUC0–∞,brain,u / AUC0–∞,p,u)): < 0.00725
Kp ([1]; Swiss-Webster (Crl:CFW(SW)), brain/plasma, ip, supplement, 10 mg/kg i.p., read-out: Kp,brain (AUC0–∞,brain / AUC0–∞,p)): 0.0924
MRT inf ([1]; Swiss-Webster (Crl:CFW(SW)), ip, brain NCA, 10 mg/kg i.p.): 72.1 min
Kp uu ([1]; Swiss-Webster, brain and plasma (unbound), ip, 10 mg kg^-1 i.p., mice, read-out: Cmax,brain,u/Cmax,p,u): < 0.009
Kp uu ([1]; Swiss-Webster, brain and plasma (unbound), ip, 10 mg kg^-1 i.p., mice, read-out: K p,uu,brain (AUC0–∞,brain,u/AUC0–∞,p,u)): < 0.007
Kp ([1]; Swiss-Webster, brain and plasma, ip, 10 mg kg^-1 i.p., mice, read-out: Cmax,brain/Cmax,p): 0.11
Kp ([1]; Swiss-Webster, brain and plasma, ip, 10 mg kg^-1 i.p., mice, read-out: K p,brain (AUC0–∞,brain/AUC0–∞,p)): 0.09
concentration at 0.5 h ([1]; Swiss-Webster, brain, intraperitoneal, 0.5 h, read-out: Conc (brain, NCA input)): 443 ng/mL
concentration at 1 h ([1]; Swiss-Webster, brain, intraperitoneal, 1 h, read-out: Conc (brain, NCA input)): 308 ng/mL
concentration at 2 h ([1]; Swiss-Webster, brain, intraperitoneal, 2 h, read-out: Conc (brain, NCA input)): 96.3 ng/mL
concentration at 0.5 h ([1]; Swiss-Webster, brain, ip, 0.5 h, 10 mg/kg i.p., individual mice, read-out: [drug],brain (free base equivalent)): 354 ng/g
concentration at 0.5 h ([1]; Swiss-Webster, brain, ip, 0.5 h, 10 mg/kg i.p., read-out: mean (brain)): 443 ng/g
concentration at 1 h ([1]; Swiss-Webster, brain, ip, 1 h, 10 mg/kg i.p., individual mice, read-out: [drug],brain (free base equivalent)): 324 ng/g
concentration at 1 h ([1]; Swiss-Webster, brain, ip, 1 h, 10 mg/kg i.p., read-out: mean (brain)): 308 ng/g
concentration at 2 h ([1]; Swiss-Webster, brain, ip, 2 h, 10 mg/kg i.p., individual mice, read-out: [drug],brain (free base equivalent)): 169 ng/g
concentration at 2 h ([1]; Swiss-Webster, brain, ip, 2 h, 10 mg/kg i.p., <MRC substituted by MRC/2, read-out: mean (brain)): 96 ng/g
AUC(0-inf) ([1]; Swiss-Webster, brain, ip, brain, 10 mg kg^-1 i.p., non-compartmental analysis, read-out: AUC 0–∞,brain): 593 ng·h/mL
Tmax ([1]; Swiss-Webster, in vivo, ip, ·2HCl salts, 10 mg kg^-1 i.p., mice): 30 min
AUC(0-t) [1, 8]: 501 ng·h/mL
Tmax [1, 8]: 30 min
Cmax ([1]; Swiss-Webster, ip, brain NCA, 10 mg/kg i.p., read-out: Cmax): 443 ng/mL
k el [1, 8]: 0.000288 s⁻¹
half-life [1, 8]: 40.1 min
AUC(0-t) [1, 9]: 5910 ng·h/mL
Tmax [1, 9]: 30 min
k el [1, 9]: 2.28e-05 s⁻¹
MRT inf [1, 9]: 360 min
half-life [1, 9]: 507 min
Cmax ([1]; Swiss-Webster, ip, plasma, 10 mg kg^-1 i.p., mice, read-out: C max,p): 4020 ng/mL
concentration at 0.5 h ([1]; Swiss-Webster, plasma, intraperitoneal, 0.5 h, read-out: Conc (plasma, NCA input)): 4020 ng/mL
concentration at 1 h ([1]; Swiss-Webster, plasma, intraperitoneal, 1 h, read-out: Conc (plasma, NCA input)): 1790 ng/mL
concentration at 2 h ([1]; Swiss-Webster, plasma, intraperitoneal, 2 h, read-out: Conc (plasma, NCA input)): 339 ng/mL
concentration at 4 h ([1]; Swiss-Webster, plasma, intraperitoneal, 4 h, read-out: Conc (plasma, NCA input)): 148 ng/mL
concentration at 24 h ([1]; Swiss-Webster, plasma, intraperitoneal, 24 h, read-out: Conc (plasma, NCA input)): 42 ng/mL
concentration at 0.5 h ([1]; Swiss-Webster, plasma, ip, 0.5 h, 10 mg/kg i.p., read-out: mean (plasma)): 4020 ng/mL
concentration at 1 h ([1]; Swiss-Webster, plasma, ip, 1 h, 10 mg/kg i.p., read-out: mean (plasma)): 1790 ng/mL
concentration at 2 h ([1]; Swiss-Webster, plasma, ip, 2 h, 10 mg/kg i.p., individual mice, read-out: [drug],plasma (free base equivalent)): 366 ng/mL
concentration at 2 h ([1]; Swiss-Webster, plasma, ip, 2 h, 10 mg/kg i.p., read-out: mean (plasma)): 339 ng/mL
concentration at 4 h ([1]; Swiss-Webster, plasma, ip, 4 h, 10 mg/kg i.p., individual mice, read-out: [drug],plasma (free base equivalent)): 116 ng/mL
concentration at 4 h ([1]; Swiss-Webster, plasma, ip, 4 h, 10 mg/kg i.p., read-out: mean (plasma)): 148 ng/mL
concentration at 24 h ([1]; Swiss-Webster, plasma, ip, 24 h, 10 mg/kg i.p., <MRC substituted by MRC/2, read-out: mean (plasma)): 42 ng/mL
AUC(0-inf) ([1]; Swiss-Webster, plasma, ip, plasma NCA, 10 mg/kg i.p., read-out: AUC 0-inf_obs): 6420 ng·h/mL
CL/F ([1]; Swiss-Webster, plasma, ip, plasma NCA, 10 mg/kg i.p., read-out: Cl/F_obs (converted)): 26 mL/min/kg
Vd/F ([1]; Swiss-Webster, plasma, ip, plasma NCA, 10 mg/kg i.p., read-out: Vz/F_obs): 19 L/kg
AUC(0-inf) ([1]; Swiss-Webster, plasma, ip, plasma, 10 mg kg^-1 i.p., non-compartmental analysis, read-out: AUC 0–∞,p): 6420 ng·h/mL
CL/F ([1]; Swiss-Webster, plasma, ip, plasma, 10 mg kg^-1 i.p., non-compartmental analysis, read-out: CL/F (converted)): 28.3 mL/min/kg
Vd/F ([1]; Swiss-Webster, plasma, ip, plasma, 10 mg kg^-1 i.p., non-compartmental analysis, read-out: V z /F): 19 L/kg
AUMC 0-inf_obs ([1]; plasma NCA, 10 mg/kg i.p.): 38503.5 ng/ml*h^2
Tlag ([1]; plasma NCA, 10 mg/kg i.p.): 0 h
C max,brain,u ([1]; unbound brain, 10 mg kg^-1 i.p., in vivo brain binding assumed at least 3-fold greater than homogenate): < 26 nM
Decline of mean brain level from peak [1, 10]: 31%
Decline of mean plasma concentration from peak [1, 10]: 56%
Decline of mean plasma concentration from peak ([1]; within 2 hours, 10 mg kg^-1 i.p.): 92%
Decline of brain levels [1, 11]: at least 75%
Decline of mean plasma concentration from peak [1, 11]: at least 80%
solubility [2]: > 45 mM
μ antagonism, duration [3]: approximately 4 hours
μ antagonism, time of peak [3]: approximately 30 minutes
Detection in mouse brain after administration [4]: up to 21 days
